Assay results reported in ChEMBL document CHEMBL5120859, “Optimization of 4-arylthiophene-3-carboxylic acid derivatives as inhibitors of ANO1: Lead optimization studies toward their analgesic efficacy for inflammatory pain” (Eur J Med Chem, 2022).
Activity calls are given as the source filed them. The calls are words filed in the database; no cut-off is given here.

Columns and labels:
Anoctamin-1 = biological target: T1, Anoctamin-1 (Homo sapiens, UniProt Q5XXA6); test: Inhibition of YFP tagged ANO1 (unknown origin) expressed in FRT cells incubated for 24 hrs by fluorescence plate reader assay; assay type: cell-based
T1 sequence (Q5XXA6 whole entry): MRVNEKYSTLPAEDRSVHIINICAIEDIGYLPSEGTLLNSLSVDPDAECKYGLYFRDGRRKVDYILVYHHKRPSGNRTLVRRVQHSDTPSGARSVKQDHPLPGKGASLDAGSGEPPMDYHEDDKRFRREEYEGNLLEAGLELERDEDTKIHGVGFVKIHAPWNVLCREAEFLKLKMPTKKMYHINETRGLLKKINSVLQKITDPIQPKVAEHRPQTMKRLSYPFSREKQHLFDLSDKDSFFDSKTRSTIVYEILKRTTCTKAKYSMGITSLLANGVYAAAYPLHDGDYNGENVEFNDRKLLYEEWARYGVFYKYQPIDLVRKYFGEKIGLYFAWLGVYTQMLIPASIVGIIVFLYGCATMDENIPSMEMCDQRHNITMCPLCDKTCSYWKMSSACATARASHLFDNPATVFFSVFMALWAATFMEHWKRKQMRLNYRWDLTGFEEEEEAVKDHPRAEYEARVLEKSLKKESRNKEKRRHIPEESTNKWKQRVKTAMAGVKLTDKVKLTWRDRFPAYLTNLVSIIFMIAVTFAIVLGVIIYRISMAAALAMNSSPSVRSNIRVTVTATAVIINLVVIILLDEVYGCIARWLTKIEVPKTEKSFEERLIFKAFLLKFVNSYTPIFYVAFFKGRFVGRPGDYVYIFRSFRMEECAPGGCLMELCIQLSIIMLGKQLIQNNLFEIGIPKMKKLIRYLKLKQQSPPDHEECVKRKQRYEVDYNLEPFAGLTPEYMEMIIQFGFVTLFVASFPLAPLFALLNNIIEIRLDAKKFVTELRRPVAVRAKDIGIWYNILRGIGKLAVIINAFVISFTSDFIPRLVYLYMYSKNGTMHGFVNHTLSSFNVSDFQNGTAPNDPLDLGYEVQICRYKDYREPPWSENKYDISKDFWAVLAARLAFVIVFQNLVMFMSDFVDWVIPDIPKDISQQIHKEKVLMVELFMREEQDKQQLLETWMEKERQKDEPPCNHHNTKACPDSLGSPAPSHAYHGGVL

[1] = biological target: T2, Anoctamin-1 (Homo sapiens) (UniProt Q5XXA6); test: Inhibition of YFP tagged ANO1 (unknown origin) expressed in FRT cells at 30 uM incubated for 24 hrs by whole cell patch clamp electrophysiology relative to control; assay type: cell-based
T2 sequence (whole entry): T1 sequence (Q5XXA6 whole entry)

[2] = biological target: T3, Anoctamin-2 (Homo sapiens) (UniProt Q9NQ90); test: Inhibition of human ANO2 expressed in HEK293 cells at 30 uM incubated for 5 mins by whole cell patch clamp electrophysiology relative to control; assay type: cell-based
T3 sequence (whole entry): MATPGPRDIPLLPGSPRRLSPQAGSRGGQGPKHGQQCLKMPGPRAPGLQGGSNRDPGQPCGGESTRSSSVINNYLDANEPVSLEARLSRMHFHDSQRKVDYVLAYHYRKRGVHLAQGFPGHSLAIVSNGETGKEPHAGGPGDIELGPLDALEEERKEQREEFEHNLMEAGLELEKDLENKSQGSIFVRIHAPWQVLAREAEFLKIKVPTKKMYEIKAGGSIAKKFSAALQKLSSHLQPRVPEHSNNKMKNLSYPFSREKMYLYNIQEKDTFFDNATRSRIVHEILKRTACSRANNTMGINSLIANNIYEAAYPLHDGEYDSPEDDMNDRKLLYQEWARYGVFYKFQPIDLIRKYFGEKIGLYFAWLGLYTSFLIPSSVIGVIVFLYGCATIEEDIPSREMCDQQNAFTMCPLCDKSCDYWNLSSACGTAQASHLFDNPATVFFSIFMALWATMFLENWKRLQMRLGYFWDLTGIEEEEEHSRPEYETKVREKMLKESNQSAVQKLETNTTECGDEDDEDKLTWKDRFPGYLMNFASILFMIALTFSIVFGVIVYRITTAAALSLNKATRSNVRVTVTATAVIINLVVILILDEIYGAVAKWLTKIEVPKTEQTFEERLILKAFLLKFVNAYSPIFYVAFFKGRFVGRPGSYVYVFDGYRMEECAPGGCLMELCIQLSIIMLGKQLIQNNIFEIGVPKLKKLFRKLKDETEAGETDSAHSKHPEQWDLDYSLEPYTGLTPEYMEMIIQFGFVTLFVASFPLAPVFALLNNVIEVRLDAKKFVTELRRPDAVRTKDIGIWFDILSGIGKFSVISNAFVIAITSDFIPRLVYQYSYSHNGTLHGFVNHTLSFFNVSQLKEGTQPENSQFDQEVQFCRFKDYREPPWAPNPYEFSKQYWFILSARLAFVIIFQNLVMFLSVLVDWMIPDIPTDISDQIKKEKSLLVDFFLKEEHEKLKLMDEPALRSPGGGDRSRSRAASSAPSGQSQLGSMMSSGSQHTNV

[3] = biological target: Transient receptor potential cation channel subfamily V member 1 (Homo sapiens) (UniProt Q8NER1); test: Inhibition of TRPV1 (unknown origin) at a holding potential +100 mV at 30 uM by whole cell patch clamp electrophysiology relative to control
Chain of Transient receptor potential cation channel subfamily V member 1 (Homo sapiens) (Q8NER1 whole entry): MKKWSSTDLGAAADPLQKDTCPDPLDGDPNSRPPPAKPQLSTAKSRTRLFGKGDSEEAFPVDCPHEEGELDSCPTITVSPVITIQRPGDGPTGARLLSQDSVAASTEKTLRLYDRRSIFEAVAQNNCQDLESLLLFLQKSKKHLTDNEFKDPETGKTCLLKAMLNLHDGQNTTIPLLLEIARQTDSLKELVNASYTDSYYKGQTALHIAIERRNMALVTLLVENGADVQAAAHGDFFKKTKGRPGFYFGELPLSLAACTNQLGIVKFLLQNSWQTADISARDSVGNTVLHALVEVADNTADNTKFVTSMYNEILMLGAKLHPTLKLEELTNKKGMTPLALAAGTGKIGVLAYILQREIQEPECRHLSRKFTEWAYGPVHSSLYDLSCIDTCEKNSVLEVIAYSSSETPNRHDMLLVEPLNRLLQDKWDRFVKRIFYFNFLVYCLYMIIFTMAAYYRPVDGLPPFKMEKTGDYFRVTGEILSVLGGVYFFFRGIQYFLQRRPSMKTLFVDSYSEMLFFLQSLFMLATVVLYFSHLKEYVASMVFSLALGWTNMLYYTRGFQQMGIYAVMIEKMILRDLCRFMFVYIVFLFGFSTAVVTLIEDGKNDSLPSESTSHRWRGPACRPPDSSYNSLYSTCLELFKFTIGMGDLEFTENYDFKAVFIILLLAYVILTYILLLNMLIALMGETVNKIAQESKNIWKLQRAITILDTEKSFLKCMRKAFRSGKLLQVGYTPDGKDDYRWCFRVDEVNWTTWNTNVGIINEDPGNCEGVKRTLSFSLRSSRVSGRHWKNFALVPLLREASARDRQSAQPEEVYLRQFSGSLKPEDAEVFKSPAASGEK

[4] = Cytotoxicity against human HEK293 cells assessed as inhibition of cell growth at 30 uM incubated for 72 hrs by CCK-8 assay; assay type: toxicity, cell-based
[5] = biological target: Voltage-gated inwardly rectifying potassium channel KCNH2 (Homo sapiens, UniProt Q12809); test: Cardiotoxicity against human ERG expressed in HEK293 cells by patch clamp assay; assay type: toxicity, cell-based
Chain of Voltage-gated inwardly rectifying potassium channel KCNH2 (Q12809 whole entry): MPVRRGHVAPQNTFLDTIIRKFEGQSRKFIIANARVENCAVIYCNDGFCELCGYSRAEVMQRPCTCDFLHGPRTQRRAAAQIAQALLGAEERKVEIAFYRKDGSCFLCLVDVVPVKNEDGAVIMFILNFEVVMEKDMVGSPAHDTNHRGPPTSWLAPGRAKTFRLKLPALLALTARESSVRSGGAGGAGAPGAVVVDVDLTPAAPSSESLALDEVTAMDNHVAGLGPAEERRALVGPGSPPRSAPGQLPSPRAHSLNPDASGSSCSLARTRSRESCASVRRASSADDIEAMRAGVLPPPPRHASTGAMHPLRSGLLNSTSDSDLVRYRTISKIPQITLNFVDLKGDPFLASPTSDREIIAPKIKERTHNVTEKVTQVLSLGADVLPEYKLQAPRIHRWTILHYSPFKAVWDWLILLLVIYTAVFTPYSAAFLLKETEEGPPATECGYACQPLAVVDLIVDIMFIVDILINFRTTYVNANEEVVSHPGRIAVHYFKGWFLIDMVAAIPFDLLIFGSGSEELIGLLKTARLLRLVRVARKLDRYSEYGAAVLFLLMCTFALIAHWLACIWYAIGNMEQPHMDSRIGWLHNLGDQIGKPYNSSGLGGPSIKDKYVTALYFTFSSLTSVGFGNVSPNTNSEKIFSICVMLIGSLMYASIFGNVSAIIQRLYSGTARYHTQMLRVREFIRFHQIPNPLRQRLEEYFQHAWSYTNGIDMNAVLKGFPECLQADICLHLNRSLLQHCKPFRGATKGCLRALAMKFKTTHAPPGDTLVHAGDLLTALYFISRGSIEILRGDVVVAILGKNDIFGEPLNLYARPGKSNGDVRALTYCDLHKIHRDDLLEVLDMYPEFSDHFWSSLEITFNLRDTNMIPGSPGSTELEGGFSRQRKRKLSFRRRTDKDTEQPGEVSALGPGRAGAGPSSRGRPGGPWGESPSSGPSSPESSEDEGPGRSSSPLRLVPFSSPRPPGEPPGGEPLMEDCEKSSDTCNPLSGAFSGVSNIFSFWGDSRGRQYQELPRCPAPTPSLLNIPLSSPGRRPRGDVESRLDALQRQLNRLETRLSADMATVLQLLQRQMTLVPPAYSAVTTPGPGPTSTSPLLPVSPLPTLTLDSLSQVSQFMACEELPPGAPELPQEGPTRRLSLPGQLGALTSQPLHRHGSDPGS

Mus musculus [6] = test: Analgesic activity in C57BL/6 mouse model of formalin-induced allodynia assessed as reduction on foot licking pain response at 40 mg/kg,po measured after 10 mins; assay type: functional, organism-based
[7] = biological target: Voltage-dependent N-type calcium channel subunit alpha-1B (Homo sapiens) (UniProt Q00975); test: Inhibition of Cav2.2 (unknown origin) at a holding potential +10 mV at 10 uM by whole cell patch clamp electrophysiology relative to control
Chain of Voltage-dependent N-type calcium channel subunit alpha-1B (Homo sapiens) (Q00975 whole entry, looked up, tested part not stated): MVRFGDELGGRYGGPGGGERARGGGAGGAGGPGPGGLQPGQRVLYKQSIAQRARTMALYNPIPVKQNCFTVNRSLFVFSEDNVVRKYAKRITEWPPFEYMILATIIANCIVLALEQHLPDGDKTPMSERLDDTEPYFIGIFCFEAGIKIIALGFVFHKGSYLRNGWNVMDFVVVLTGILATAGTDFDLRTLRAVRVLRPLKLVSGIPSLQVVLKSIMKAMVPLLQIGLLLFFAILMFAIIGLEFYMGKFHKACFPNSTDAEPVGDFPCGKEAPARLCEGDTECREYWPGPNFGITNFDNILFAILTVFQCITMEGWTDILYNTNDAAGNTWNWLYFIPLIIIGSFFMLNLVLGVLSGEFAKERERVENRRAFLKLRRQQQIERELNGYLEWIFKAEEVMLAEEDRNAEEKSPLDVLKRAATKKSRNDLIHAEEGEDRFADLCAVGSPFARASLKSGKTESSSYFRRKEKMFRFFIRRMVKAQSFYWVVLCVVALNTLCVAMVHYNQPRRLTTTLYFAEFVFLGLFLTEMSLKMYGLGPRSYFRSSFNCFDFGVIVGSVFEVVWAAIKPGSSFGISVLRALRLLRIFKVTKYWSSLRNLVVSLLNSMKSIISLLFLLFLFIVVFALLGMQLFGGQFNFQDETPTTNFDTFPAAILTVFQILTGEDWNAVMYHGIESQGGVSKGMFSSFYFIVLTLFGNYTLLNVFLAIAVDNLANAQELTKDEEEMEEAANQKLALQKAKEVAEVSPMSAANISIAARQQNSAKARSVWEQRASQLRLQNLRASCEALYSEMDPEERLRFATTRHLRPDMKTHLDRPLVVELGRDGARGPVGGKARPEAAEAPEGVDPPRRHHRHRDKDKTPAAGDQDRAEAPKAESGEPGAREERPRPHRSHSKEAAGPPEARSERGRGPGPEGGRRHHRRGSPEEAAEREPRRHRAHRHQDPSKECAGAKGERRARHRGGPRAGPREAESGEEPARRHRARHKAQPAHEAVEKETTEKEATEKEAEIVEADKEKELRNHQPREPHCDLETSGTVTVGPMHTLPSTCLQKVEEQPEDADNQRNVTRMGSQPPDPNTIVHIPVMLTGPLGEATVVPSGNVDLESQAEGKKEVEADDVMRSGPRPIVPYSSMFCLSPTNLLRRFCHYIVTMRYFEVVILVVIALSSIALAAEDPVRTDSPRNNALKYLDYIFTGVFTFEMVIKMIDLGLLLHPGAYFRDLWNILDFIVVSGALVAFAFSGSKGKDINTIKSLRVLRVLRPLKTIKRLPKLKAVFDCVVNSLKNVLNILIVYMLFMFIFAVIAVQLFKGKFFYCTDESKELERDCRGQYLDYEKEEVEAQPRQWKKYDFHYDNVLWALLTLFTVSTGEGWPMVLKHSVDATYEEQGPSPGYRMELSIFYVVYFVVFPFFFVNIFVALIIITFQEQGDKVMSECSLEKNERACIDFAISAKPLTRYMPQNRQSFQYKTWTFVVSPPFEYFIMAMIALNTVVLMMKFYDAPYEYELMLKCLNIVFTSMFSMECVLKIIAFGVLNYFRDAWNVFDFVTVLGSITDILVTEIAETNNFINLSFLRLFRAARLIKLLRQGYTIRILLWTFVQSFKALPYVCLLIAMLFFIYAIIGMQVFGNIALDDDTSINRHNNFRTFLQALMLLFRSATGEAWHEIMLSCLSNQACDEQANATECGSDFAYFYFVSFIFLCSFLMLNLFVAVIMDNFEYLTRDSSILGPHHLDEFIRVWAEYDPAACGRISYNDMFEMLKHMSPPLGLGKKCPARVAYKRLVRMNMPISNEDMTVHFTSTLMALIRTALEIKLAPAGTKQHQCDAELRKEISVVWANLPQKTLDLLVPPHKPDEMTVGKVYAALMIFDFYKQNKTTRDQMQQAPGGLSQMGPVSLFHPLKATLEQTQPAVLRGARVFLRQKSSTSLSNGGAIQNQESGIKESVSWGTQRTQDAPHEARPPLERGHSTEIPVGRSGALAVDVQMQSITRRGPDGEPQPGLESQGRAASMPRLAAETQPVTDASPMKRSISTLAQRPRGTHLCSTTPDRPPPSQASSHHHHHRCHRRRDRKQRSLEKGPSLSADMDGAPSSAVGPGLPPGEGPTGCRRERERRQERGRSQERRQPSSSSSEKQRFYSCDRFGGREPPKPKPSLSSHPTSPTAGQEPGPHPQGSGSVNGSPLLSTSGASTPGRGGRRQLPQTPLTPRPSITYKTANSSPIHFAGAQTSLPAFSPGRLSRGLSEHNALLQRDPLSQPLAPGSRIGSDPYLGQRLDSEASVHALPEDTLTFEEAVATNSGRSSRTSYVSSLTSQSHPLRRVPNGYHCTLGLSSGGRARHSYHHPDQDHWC

[8] = biological target: Transient receptor potential cation channel subfamily V member 1 (Homo sapiens) (UniProt Q8NER1); test: Inhibition of TRPV1 (unknown origin) at a holding potential +100 mV at 10 uM by whole cell patch clamp electrophysiology relative to control
[9] = biological target: Voltage-gated potassium channel, KQT; KCNQ2(Kv7.2)/KCNQ3(Kv7.3) (Homo sapiens) (UniProt O43526+O43525); test: Inhibition of KCNQ2/3 (unknown origin) at a holding potential -40 mV at 30 uM by whole cell patch clamp electrophysiology relative to control
Mus musculus [10] = test: Analgesic activity in C57BL/6 mouse model of formalin-induced allodynia assessed as reduction on foot licking pain response at 20 mg/kg,po measured after 10 mins; assay type: functional, organism-based

| Compound | IC50 (Anoctamin-1) [µM] | further results |
| --- | --- | --- |
| O=C(Nc1scc(-c2ccc(Cl)cc2)c1C(=O)O)c1cc(I)ccc1F | 4.49 | – |
| O=C(O)c1c(-c2ccc(Cl)cc2)csc1NC(=O)c1cccc2ccccc12 | 0.79 | – |
| O=C(Nc1scc(-c2ccc(Cl)cc2)c1C(=O)O)c1cc(C(F)(F)F)ccc1Cl | 36.9 | – |
| O=C(Nc1scc(-c2ccc(Cl)cc2)c1C(=O)O)c1cc(Cl)ccc1C(F)(F)F | 1.59 | – |
| COc1ccc(Cl)c(C(=O)Nc2scc(-c3ccc(Cl)cc3)c2C(=O)O)c1 | 35.9 | – |
| O=C(Nc1scc(-c2ccc(Cl)cc2)c1C(=O)O)c1ccccc1OC(F)(F)F | 5.66 | – |
| O=C(Nc1scc(-c2ccc(Cl)cc2)c1C(=O)O)c1cc(Cl)ccc1F | 8.77 | – |
| O=C(Nc1scc(-c2ccc(Cl)cc2)c1C(=O)O)c1cc(Br)ccc1Cl | 83.5 | – |
| O=C(Nc1scc(-c2ccc(Cl)cc2)c1C(=O)O)c1cc(Br)ccc1F | 59.8 | – |
| O=C(O)c1c(-c2ccc(Cl)cc2)csc1NC(=O)c1cccc2ncccc12 | 6.99 | – |
| COc1ccc(Cl)cc1C(=O)Nc1scc(-c2ccc(Cl)cc2)c1C(=O)O | > 100 | – |
| O=C(Nc1scc(-c2ccc(Cl)cc2)c1C(=O)O)c1cc(F)ccc1I | 2.21 | – |
| O=C(Nc1scc(-c2ccc(Cl)cc2)c1C(=O)O)c1c(Cl)cccc1Cl | 12.1 | – |
| O=C(Nc1scc(-c2ccc(Cl)cc2)c1C(=O)O)c1cc(F)ccc1Br | 0.96 | – |
| O=C(Nc1scc(-c2ccc(Cl)cc2)c1C(=O)O)c1cc(Cl)ccc1Br | 0.029 | inhibition [1]: 32.1%; inhibition [2]: 92.6%; inhibition [3]: 26.4%; inhibition at 72 h, 30 µM [4]: < 10%; IC50 [5]: > 30 µM |
| CC(C)Cc1ccc(C(C)C(=O)O)cc1 (configuration not stated) | – | Activity (Mus musculus [6]): Active |
| O=C(Nc1scc(-c2ccc(Cl)cc2)c1C(=O)O)c1cc(Cl)ccc1I | 12 | – |
| O=C(Nc1scc(-c2ccc(Cl)cc2)c1C(=O)O)c1cccnc1 | 70.6 | – |
| O=C(Nc1scc(-c2ccc(Cl)cc2)c1C(=O)O)c1cccc2c1OCO2 | > 100 | – |
| CADMIUM DICHLORIDE | – | inhibition [7]: 91.4% |

| Compound | IC50 (Anoctamin-1) [µM] | further results |
| --- | --- | --- |
| CC(=O)Oc1ccccc1C(=O)Nc1ncc([N+](=O)[O-])s1 [NITAZOXANIDE] | 0.424 | – |
| Cc1ccsc1C(=O)Nc1scc(-c2ccc(Cl)cc2)c1C(=O)O | 3.12 | – |
| CC(C)(C)C1CCc2c(sc(NC(=O)c3ccco3)c2C(=O)O)C1 (configuration not stated) | – | inhibition [2]: 71.2%; Activity (Mus musculus [6]): Active |
| O=C(Nc1scc(-c2ccc(Cl)cc2)c1C(=O)O)c1cc(F)ccc1Cl | 6.55 | – |
| O=C(O)c1c(-c2ccc(Cl)cc2)csc1NC(=O)c1cccc2cccnc12 | > 300 | – |
| COc1cc(CNC(=O)CCCC/C=C/C(C)C)ccc1O | – | inhibition [8]: 96.7% |
| O=C(Nc1scc(-c2ccc(Cl)cc2)c1C(=O)O)c1cc(Cl)ccc1Cl | 0.27 | – |
| O=C(Nc1scc(-c2ccc(Cl)cc2)c1C(=O)O)c1cccc2c1OCCO2 | > 100 | – |
| O=C(Nc1scc(-c2ccc(Cl)cc2)c1C(=O)O)c1cnccn1 | 4.01 | – |
| O=C(Nc1scc(-c2ccc(Cl)cc2)c1C(=O)O)c1cccc(Cl)c1Cl | 1.94 | – |
| CCOC(=O)Nc1ccc(NCc2ccc(F)cc2)cc1N | – | inhibition [9]: 100% |
| Cc1ccc(Cl)c(C(=O)Nc2scc(-c3ccc(Cl)cc3)c2C(=O)O)c1 | 1.79 | – |
| O=C(Nc1scc(-c2ccc(Cl)cc2)c1C(=O)O)c1ccc(Cl)cc1Cl | 1.24 | – |
| COc1ccccc1/N=N/C(=O)COc1ccc(Cl)cc1C | 1.07 | inhibition [1]: 42.7%; inhibition [2]: 12.6% |
| O=C(Nc1scc(-c2ccc(Cl)cc2)c1C(=O)O)c1cc(I)ccc1Cl | 78.9 | – |
| Cc1ccc(Cl)cc1C(=O)Nc1scc(-c2ccc(Cl)cc2)c1C(=O)O | > 100 | – |
| O=C(Nc1scc(-c2ccc(Cl)cc2)c1C(=O)O)c1ccncc1 | 6.27 | – |
| CC(C)C[C@H](CN)CC(=O)O | – | Activity (Mus musculus [10]): Active |
| O=C(Nc1ccc([N+](=O)[O-])cc1Cl)c1cc(Cl)ccc1O [NICLOSAMIDE] | 0.028 | – |
